According to US6503952B2, “Triple antimicrobial composition” (The Trustees of Columbia University in the City of New York, priority 1995, dated 2003):

What was measured:
[1] = tested on: Staphylococcus aureus; assay: Rate of kill: colony counts after one minute exposure of Staphylococcus aureus in TSB broth with 20% serum; type: cell-based; details: for CFU/mL: Table 15: single agent, control 2.0 × 10^7
Method: (§1) To produce each sample, 0.1 ml of a ten-fold concentrated antimicrobial solution was added to 0.9 ml of TSB broth containing 20% serum and 107 colony forming units (CFU) of Staphylococcus aureus. After one minute, a 50 microliter aliquot from each sample was diluted to a volume of 10 ml with LTSB drug inactivating medium (5% Tween 80, 2% lecithin, 0.6% sodium oleate, 0.5% sodium thiosulfate, 0.1% protease peptone and 0.1% tryptone), and then 0.5 ml of the diluted culture was plated on trypticase soy agar plates. The plates were incubated at 37° C. for 24 hours, and then colony counts per milliliter of the original 1 ml antimicrobial containing culture were determined.
Using the same methods set forth in example section 5, above, the rate of kill of compositions comprising PHMB, PCMX, BZK and PXE were tested. […] Synergy was also observed among 0.1% PXE+0.05% PHMB+0.05% PCMX.

[2] = tested on: Staphylococcus aureus; assay: Colony counts with CHX and PCMX (in 5% isopropanol) in the presence of blood; type: cell-based; details: Table 11: in 5% isopropanol, control 3 × 10^6
Method: as §1, with “To produce each sample, 0.1 ml of a ten-fold concentrated antimicrobial solution was added to 0.9 ml of TSB broth containing 20% serum and 107 colony forming units (CFU) of Staphylococcus aureus.” left out

## polyhexamethylene biguanide [PHMB]
[1]; concentration 0.025%
  CFU/mL: 5.0 × 10^6 CFU/mL
[1]; concentration 0.05%
  CFU/mL: 2.0 × 10^6 CFU/mL
[1]; concentration 0.1%
  CFU/mL: 4.0 × 10^6 CFU/mL

## parachlorometaxylenol [PCMX]
[1]; 2.5% ISOPR samples, relative to the control named in the text (A1, A2, A4 or the no-antimicrobial control)
  decrease in the number of CFU relative to control (factor / fold): ten
[1]; concentration 0.05%
  CFU/mL: 5.0 × 10^6 CFU/mL
[1]; concentration 0.1%
  CFU/mL: 1.6 × 10^3 CFU/mL

## parachlorometaxylenol [.25% PCMX]
[2]
  CFU/ml: 1.4 × 10^4 CFU/ml

## parachlorometaxylenol [.5% PCMX]
[2]
  CFU/ml: 0 CFU/ml

## [H]/N=C(\N/C(=N/[H])NCCCCCCNC(=N)NC(=N)Nc1ccc(Cl)cc1)Nc1ccc(Cl)cc1 [1% CHX, chlorhexidine]
[2]
  CFU/ml: 1 × 10^4 CFU/ml

## benzalkonium chloride [BZK]
[1]; concentration 0.02%
  CFU/mL: 2.0 × 10^7 CFU/mL

## [H]/N=C(\N/C(=N/[H])NCCCCCCNC(=N)NC(=N)Nc1ccc(Cl)cc1)Nc1ccc(Cl)cc1 [.5% CHX, chlorhexidine]
[2]
  CFU/ml: 1 × 10^5 CFU/ml

## parachlorometaxylenol [.125% PCMX]
[2]
  CFU/ml: 1 × 10^6 CFU/ml
